The IC50 is the concentration that inhibits the measured activity by half.

This is an account of results in patent US20190119251A1, “AMIDE-SUBSTITUTED ARYLTRIAZOLE DERIVATIVES AND USES THEREOF” (BAYER PHARMA AKTIENGESELLSCHAFT, priority 2016, published 2019).

Structures are written as SMILES.

Experiment [1] concerns the target T1, human V1a receptor (Homo sapiens, UniProt P37288).
T1 construct: expressed in transfected cells; host or cells: CHO K1 (Chinese hamster ovary), also stably transfected with modified aequorin
Description: Cellular in vitro assay for determining vasopressin receptor activity (V1a cell line, aequorin luminescence). The following applies: for IC50: CHO cell line transfected with the human V1a receptor, agonist [Arg8]-vasopressin at EC50 concentration, read-out: IC50 hV1a; for ratio IC50 hV2/hV1a: ratio of cellular IC50 values, human V2 over human V1a. Format: cell-based. On the procedure:
(§1) B-1. Cellular In Vitro Assay for Determining Vasopressin Receptor Activity
(§2) The identification of agonists and antagonists of the V 1 a and V2 vasopressin receptors from humans, rats and dogs as well as the quantification of the activity of the compounds of the invention is carried out using recombinant cell lines. These cell lines originally derive from a hamster's ovary epithelial cell (Chinese Hamster Ovary, CHO K1, ATCC: American Type Culture Collection, Manassas, Va. 20108, USA). The test cell lines constitutively express the human, rat or dog
(§3) V1 a or V2 receptors. In case of the Gag-coupled V 1 a receptors, cells are also stably transfected with a modified form of the calcium-sensitive photoproteins aequorin (human and rat V1a) or obelin (dog V 1 a), which, after reconstitution with the cofactor coelenterazine, emit light when there are increases in free calcium concentrations [Rizzuto R, Simpson A W, Brini M, Pozzan T, Nature 358, 325-327 (1992); Illarionov B A, Bondar V S, Illarionova V A, Vysotski E S, Gene 153 (2), 273-274 (1995)]. The resulting vasopressin receptor cells react to stimulation of the recombinantly expressed V 1 a receptors by intracellular release of calcium ions, which can be quantified by the resulting photoprotein luminescence. The Gs-coupled V2 receptors are stably transfected into cell lines expressing the gene for firefly luciferase under control of a CRE-responsible promoter. Activation of V2 receptors induces the activation of the CRE-responsive promoter via cAMP increase, thereby inducing the expression of firefly luciferase. The light emitted by photoproteins of V1a cell lines as well as the light emitted by firefly luciferase of V2 cell lines corresponds to the activation or inhibition of the respective vasopressin receptor. The bioluminescence of the cell lines is detected using a suitable luminometer [Milligan G, Marshall F, Rees S, Trends in Pharmacological Sciences 17, 235-237 (1996)].
Vasopressin V1a Receptor Cell Lines:
On the day before the assay, the cells are plated out in culture medium (DMEM/F12, 2% FCS, 2 mM glutamine, 10 mM HEPES, 5 μg/ml coelenterazine) in 384-well microtiter plates and kept in a cell incubator (96% humidity, 5% v/v CO2, 37° C.). On the day of the assay, test compounds in various concentrations are placed for 10 minutes in the wells of the microtiter plate before the agonist [Arg^8]-vasopressin at EC50 concentration is added. The resulting light signal is measured immediately in a luminometer.
(§4) Table 1A below lists individual IC50 values for the compounds of the invention (including racemic mixtures as well as separated enantiomers) that were obtained from cell lines transfected with the human V1a or V2 receptor: […]

The target of experiment [2] is T2, human V2 receptor (Homo sapiens, UniProt P30518).
T2 construct: expressed in transfected cells; host or cells: CHO K1 (Chinese hamster ovary) expressing firefly luciferase under a CRE-responsive promoter
Description: Cellular in vitro assay for determining vasopressin receptor activity (V2 cell line, CRE-luciferase). Format: cell-based. The following applies: CHO cell line transfected with the human V2 receptor; agonist [Arg8]-vasopressin at EC50 concentration; 3 hours incubation; read-out: IC50 hV2. On the procedure:
as §1, §2, §3
Vasopressin V2 Receptor Cell Lines:
On the day before the assay, the cells are plated out in culture medium (DMEM/F12, 2% FCS, 2 mM glutamine, 10 mM HEPES) in 384-well microtiter plates and kept in a cell incubator (96% humidity, 5% v/v CO2, 37° C.). On the day of the assay, test compounds in various concentrations and the agonist [Arg^8]-vasopressin at EC50 concentration are added together to the wells, and plates are incubated for 3 hours in a cell incubator. Upon addition of the cell lysis reagent Triton™ and the substrate luciferin, luminescence of firefly luciferase is measured in a luminometer.
as §4

T2 sequence (P30518 whole entry): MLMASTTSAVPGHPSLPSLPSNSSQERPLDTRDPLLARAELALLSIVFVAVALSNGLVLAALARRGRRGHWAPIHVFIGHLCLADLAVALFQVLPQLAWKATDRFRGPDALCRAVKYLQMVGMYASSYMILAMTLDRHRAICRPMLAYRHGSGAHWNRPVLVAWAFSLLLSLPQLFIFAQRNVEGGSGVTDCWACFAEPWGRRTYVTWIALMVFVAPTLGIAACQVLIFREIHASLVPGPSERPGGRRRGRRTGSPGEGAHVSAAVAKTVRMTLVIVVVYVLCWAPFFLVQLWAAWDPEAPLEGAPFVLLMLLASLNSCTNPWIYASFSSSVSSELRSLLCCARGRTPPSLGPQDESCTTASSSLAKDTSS
T1 sequence (P37288 whole entry): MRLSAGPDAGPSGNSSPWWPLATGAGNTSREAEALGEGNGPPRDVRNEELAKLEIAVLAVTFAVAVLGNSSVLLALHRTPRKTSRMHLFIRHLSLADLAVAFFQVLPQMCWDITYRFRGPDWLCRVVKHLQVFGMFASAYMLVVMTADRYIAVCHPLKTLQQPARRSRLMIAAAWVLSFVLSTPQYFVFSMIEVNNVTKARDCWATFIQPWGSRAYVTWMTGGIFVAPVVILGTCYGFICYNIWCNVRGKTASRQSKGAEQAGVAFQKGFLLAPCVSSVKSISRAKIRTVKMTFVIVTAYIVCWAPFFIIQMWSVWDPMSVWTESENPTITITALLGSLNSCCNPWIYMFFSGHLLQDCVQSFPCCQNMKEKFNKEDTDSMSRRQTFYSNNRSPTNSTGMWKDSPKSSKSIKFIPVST

For `CCc1cccnc1-n1nc(Cn2nc(-c3ccc(Cl)cc3)n(C[C@H](O)C(F)(F)F)c2=O)nc1C(N)=O` [Example 1, 3-({3-(4-Chlorophenyl)-5-oxo-4-[(2S)-3,3,3-trifluoro-2-hydroxypropyl]-4,5-dihydro-1H-1,2,4-triazol-1-yl}methyl)-1-(3-ethylpyridin-2-yl)-1H-1,2,4-triazole-5-carboxamide], in experiment [1], the IC50 amounted to 0.0051 µM and the “ratio IC50 hV2/hV1a” value amounted to 1.7. Also, the IC50 in experiment [2] is 0.00873 µM.

For `Cc1cccnc1-n1nc(Cn2nc(-c3ccc(Cl)cc3)n(C[C@H](O)C(F)(F)F)c2=O)nc1C(N)=O` [Example 2, 3-({3-(4-Chlorophenyl)-5-oxo-4-[(2S)-3,3,3-trifluoro-2-hydroxypropyl]-4,5-dihydro-1H-1,2,4-triazol-1-yl}methyl)-1-(3-methylpyridin-2-yl)-1H-1,2,4-triazole-5-carboxamide], in experiment [1], the IC50 is 0.00515 µM and the “ratio IC50 hV2/hV1a” value is recorded as 4.5. In experiment [2], the IC50 was found to be 0.0232 µM.

`Cc1cnccc1-n1nc(Cn2nc(-c3ccc(Cl)cc3)n(C[C@H](O)C(F)(F)F)c2=O)nc1C(N)=O` [Example 3, 3-({3-(4-Chlorophenyl)-5-oxo-4-[(2S)-3,3,3-trifluoro-2-hydroxypropyl]-4,5-dihydro-1H-1,2,4-triazol-1-yl}methyl)-1-(3-methylpyridin-4-yl)-1H-1,2,4-triazole-5-carboxamide]: in experiment [1], the IC50 was determined as 0.0067 µM and the “ratio IC50 hV2/hV1a” value worked out at 14.0. Also, in experiment [2], the IC50 is 0.094 µM.

`COc1cccnc1-n1nc(Cn2nc(-c3ccc(Cl)cc3)n(C[C@H](O)C(F)(F)F)c2=O)nc1C(N)=O` [Example 4, 3-({3-(4-Chlorophenyl)-5-oxo-4-[(2S)-3,3,3-trifluoro-2-hydroxypropyl]-4,5-dihydro-1H-1,2,4-triazol-1-yl}methyl)-1-(3-methoxypyridin-2-yl)-1H-1,2,4-triazole-5-carboxamide]: in experiment [1], the IC50 was found to be 0.0072 µM and the “ratio IC50 hV2/hV1a” value is recorded as 3.8. Besides, in experiment [2], the concentration for half-maximal inhibition (IC50) is 0.027 µM.

For `NC(=O)c1nc(Cn2nc(-c3ccc(Cl)cc3)n(C[C@H](O)C(F)(F)F)c2=O)nn1-c1ncccc1F` [Example 5, 3-({3-(4-Chlorophenyl)-5-oxo-4-[(2S)-3,3,3-trifluoro-2-hydroxypropyl]-4,5-dihydro-1H-1,2,4-triazol-1-yl}methyl)-1-(3-fluoropyridin-2-yl)-1H-1,2,4-triazole-5-carboxamide], the IC50 in experiment [1] was 0.0175 µM; in experiment [2], 0.046 µM. In addition, the “ratio IC50 hV2/hV1a” value in experiment [1] stood at 2.6.

For `NC(=O)c1nc(Cn2nc(-c3ccc(Cl)cc3)n(C[C@H](O)C(F)(F)F)c2=O)nn1-c1ccncc1Cl` [Example 6, 3-({3-(4-Chlorophenyl)-5-oxo-4-[(2S)-3,3,3-trifluoro-2-hydroxypropyl]-4,5-dihydro-1H-1,2,4-triazol-1-yl}methyl)-1-(3-chloropyridin-4-yl)-1H-1,2,4-triazole-5-carboxamide], in experiment [1], the IC50 amounted to 0.027 µM and the “ratio IC50 hV2/hV1a” value worked out at 14.4. In experiment [2], the concentration for half-maximal inhibition (IC50) worked out at 0.39 µM.

In the case of `COC(=O)c1cccnc1-n1nc(Cn2nc(-c3ccc(Cl)cc3)n(C[C@H](O)C(F)(F)F)c2=O)nc1C(N)=O` [Example 7, Methyl 2-[5-carbamoyl-3-({3-(4-chlorophenyl)-5-oxo-4-[(2S)-3,3,3-trifluoro-2-hydroxypropyl]-4,5-dihydro-1H-1,2,4-triazol-1-yl}methyl)-1H-1,2,4-triazol-1-yl]pyridine-3-carboxylate], in experiment [1], the IC50 stood at 0.054 µM and the “ratio IC50 hV2/hV1a” value stood at 6.1. For the same molecule, the IC50 in experiment [2] turned out to be 0.33 µM.

As to `NC(=O)c1nc(Cn2nc(-c3ccc(Cl)cc3)n(C[C@H](O)C(F)(F)F)c2=O)nn1-c1ccncc1F` [Example 8, 3-({3-(4-Chlorophenyl)-5-oxo-4-[(2S)-3,3,3-trifluoro-2-hydroxypropyl]-4,5-dihydro-1H-1,2,4-triazol-1-yl}methyl)-1-(3-fluoropyridin-4-yl)-1H-1,2,4-triazole-5-carboxamide], the IC50 was 0.07 µM in experiment [1] and 0.248 µM in experiment [2]. The “ratio IC50 hV2/hV1a” value in experiment [1] came to 3.5.

Turning to `COc1nccnc1-n1nc(Cn2nc(-c3ccc(Cl)cc3)n(C[C@H](O)C(F)(F)F)c2=O)nc1C(N)=O` [Example 9, 3-({3-(4-Chlorophenyl)-5-oxo-4-[(2S)-3,3,3-trifluoro-2-hydroxypropyl]-4,5-dihydro-1H-1,2,4-triazol-1-yl}methyl)-1-(3-methoxypyrazin-2-yl)-1H-1,2,4-triazole-5-carboxamide], in experiment [1], the IC50 is 0.0935 µM and the “ratio IC50 hV2/hV1a” value came out at 2.6. The IC50 in experiment [2] is 0.245 µM.

Regarding `NC(=O)c1nc(Cn2nc(-c3ccc(Cl)cc3)n(C[C@H](O)C(F)(F)F)c2=O)nn1-c1cccnc1Cl` [Example 10, 3-({3-(4-Chlorophenyl)-5-oxo-4-[(2S)-3,3,3-trifluoro-2-hydroxypropyl]-4,5-dihydro-1H-1,2,4-triazol-1-yl}methyl)-1-(2-chloropyridin-3-yl)-1H-1,2,4-triazole-5-carboxamide], in experiment [1], the IC50 was 0.0975 µM and the “ratio IC50 hV2/hV1a” value came to 1.6. The IC50 in experiment [2] was determined as 0.152 µM.

`NC(=O)c1nc(Cn2nc(-c3ccc(Cl)cc3)n(C[C@H](O)C(F)(F)F)c2=O)nn1-c1ccccn1` [Example 11, 3-({3-(4-Chlorophenyl)-5-oxo-4-[(2S)-3,3,3-trifluoro-2-hydroxypropyl]-4,5-dihydro-1H-1,2,4-triazol-1-yl}methyl)-1-(pyridin-2-yl)-1H-1,2,4-triazole-5-carboxamide]: in experiment [1], the IC50 stood at 0.115 µM and the “ratio IC50 hV2/hV1a” value is given as 1.3. Moreover, in experiment [2], the IC50 came to 0.15 µM.

For `Cc1ccnc(Cl)c1-n1nc(Cn2nc(-c3ccc(Cl)cc3)n(C[C@H](O)C(F)(F)F)c2=O)nc1C(N)=O` [Example 12, 1-(2-Chloro-4-methylpyridin-3-yl)-3-({3-(4-chlorophenyl)-5-oxo-4-[(2 S)-3,3,3-trifluoro-2-hydroxypropyl]-4,5-dihydro-1H-1,2,4-triazol-1-yl}methyl)-1H-1,2,4-triazole-5-carboxamide], the results for the IC50 in experiment [1] and in experiment [2] were 0.125 µM and 0.15 µM, respectively. Also, the “ratio IC50 hV2/hV1a” value in experiment [1] was found to be 1.2.

For `CCOc1ncccc1-n1nc(Cn2nc(-c3ccc(Cl)cc3)n(C[C@H](O)C(F)(F)F)c2=O)nc1C(N)=O` [Example 13, 3-({3-(4-Chlorophenyl)-5-oxo-4-[(2S)-3,3,3-trifluoro-2-hydroxypropyl]-4,5-dihydro-1H-1,2,4-triazol-1-yl}methyl)-1-(2-ethoxypyridin-3-yl)-1H-1,2,4-triazole-5-carboxamide], in experiment [1], the IC50 stood at 0.135 µM and the “ratio IC50 hV2/hV1a” value came to 3.9. In addition, in experiment [2], the IC50 came to 0.525 µM.

On to `NC(=O)c1ccncc1-n1nc(Cn2nc(-c3ccc(Cl)cc3)n(C[C@H](O)C(F)(F)F)c2=O)nc1C(N)=O` [Example 14, 3-[5-Carbamoyl-3-({3-(4-chlorophenyl)-5-oxo-4-[(2S)-3,3,3-trifluoro-2-hydroxypropyl]-4,5-dihydro-1H-1,2,4-triazol-1-yl}methyl)-1H-1,2,4-triazol-1-yl]pyridine-4-carboxamide], for which, in experiment [1], the IC50 is 0.152 µM and the “ratio IC50 hV2/hV1a” value is 4.2. Besides, in experiment [2], the IC50 was determined as 0.638 µM.

With `NC(=O)c1nc(Cn2nc(-c3ccc(Cl)cc3)n(C[C@H](O)C(F)(F)F)c2=O)nn1-c1cc(Cl)ccn1` [Example 15, 3-({3-(4-Chlorophenyl)-5-oxo-4-[(2S)-3,3,3-trifluoro-2-hydroxypropyl]-4,5-dihydro-1H-1,2,4-triazol-1-yl}methyl)-1-(4-chloropyridin-2-yl)-1H-1,2,4-triazole-5-carboxamide], in experiment [1], the IC50 worked out at 0.175 µM and the “ratio IC50 hV2/hV1a” value amounted to 0.2. Further, the IC50 in experiment [2] is 0.035 µM.
